Our source for the IC50 values is ChEMBL document CHEMBL5360530, “Structure activity relationship (SAR) and anticancer activity of pyrrolidine derivatives: Recent developments and future prospects (A review)” (Eur J Med Chem, 2023).

Structures are written as SMILES.

One data set concerns FaDu. The experiment in a line: Anticancer activity against human FaDu cells assessed as cell growth inhibition. It counts as functional, cell-based.
In another data set the test system is M-HeLa. The experiment in a line: Anticancer activity against human HelaM cells assessed as cell growth inhibition measured after 24 hrs by DAPI and propidium iodide staining based assay. It counts as functional.
Data set [1] is described as follows: Cytotoxicity against human Chang liver cells assessed as cell growth inhibition measured after 24 hrs by DAPI and propidium iodide staining based assay. It is filed as toxicity.

With `Cc1ccc([C@H]2[C@H]([N+](=O)[O-])[C@@H](Cc3c[nH]c4ccccc34)N[C@]23C(=O)Nc2ccccc23)cc1`, in the data set on FaDu, the IC50 was at least 30 µM.
Regarding `O=C1Nc2ccccc2[C@@]12N[C@H](Cc1c[nH]c3ccccc13)[C@@H]([N+](=O)[O-])[C@@H]2c1ccc(Cl)cc1`, the IC50 in the data set on FaDu was at least 30 µM.
With `Oc1cc2c(cc1-c1ccc(F)cc1)OCO2`, in the data set on M-HeLa, the IC50 came out at 14.7 µM. For the same molecule, in data set [1], the IC50 at 24 h is over 100 µM.
Regarding `COc1ccc(-c2cc3c(cc2O)OCO3)cc1`, the IC50 with M-HeLa was found to be 14.7 µM. Besides, the IC50 at 24 h in data set [1] is over 100 µM.
`CCCCCCc1ccc(Nc2c([N+](=O)[O-])c(Cl)cc3c2no[n+]3[O-])cc1O`: the concentration for half-maximal inhibition (IC50) with M-HeLa is at least 14.7 µM. The half-maximal inhibitory concentration (IC50) at 24 h in data set [1] was over 100 µM.
As for `O=C1Nc2ccc(OC(F)(F)F)cc2[C@@]12N[C@H](Cc1c[nH]c3ccccc13)[C@@H]([N+](=O)[O-])[C@@H]2c1cccc([N+](=O)[O-])c1`, the IC50 in the data set on FaDu was at least 30 µM.
For `Oc1ccc2c(c1)OCO2`, the IC50 in the data set on M-HeLa was 14.7 µM. The IC50 at 24 h in data set [1] is over 100 µM.
With `O=C1Nc2ccccc2[C@@]12N[C@H](Cc1c[nH]cn1)[C@@H]([N+](=O)[O-])[C@@H]2c1ccc(Br)cc1`, the IC50 with FaDu worked out at 40.1 µM.
Regarding `O=c1oc2ccccc2c(O)c1C1CCCCC1`, the IC50 in the data set on M-HeLa is at least 14.7 µM. Further, the IC50 at 24 h in data set [1] was over 100 µM.
In the case of `O=C1Nc2ccccc2[C@@]12N[C@H](Cc1c[nH]c3ccccc13)[C@@H]([N+](=O)[O-])[C@@H]2c1ccc(Br)cc1`, in the data set on FaDu, the IC50 was determined as 39.7 µM.
Take `O=C1Nc2ccccc2[C@@]12N[C@H](Cc1c[nH]cn1)[C@@H]([N+](=O)[O-])[C@@H]2c1ccc(Cl)cc1`: the IC50 in the data set with FaDu is at least 30 µM.
Same read-out and setting: as for `O=C1Nc2ccc(OC(F)(F)F)cc2[C@@]12N[C@H](Cc1c[nH]c3ccccc13)[C@@H]([N+](=O)[O-])[C@@H]2c1ccccc1`, the figure is at least 30 µM.
Regarding `CCCCCCc1c(O)c2ccccc2oc1=O`, the IC50 in the data set with M-HeLa was at least 14.7 µM. Also, in data set [1], the IC50 at 24 h is over 100 µM.
Take `O=C1Nc2ccc(OC(F)(F)F)cc2[C@@]12N[C@H](Cc1c[nH]cn1)[C@@H]([N+](=O)[O-])[C@@H]2c1ccc(Br)cc1`: the IC50 in the data set on FaDu is at least 30 µM.
Consider `CCCCCCc1cc2c(cc1O)OCO2`, for which the half-maximal inhibitory concentration (IC50) with M-HeLa is 14.7 µM. In data set [1], the IC50 at 24 h is over 100 µM.
On to `COc1ccc([C@H]2[C@H]([N+](=O)[O-])[C@@H](Cc3c[nH]cn3)N[C@]23C(=O)Nc2ccccc23)cc1`, for which the IC50 in the data set with FaDu was at least 30 µM.
As to `Cc1cc(O)cc(=O)o1`, the concentration for half-maximal inhibition (IC50) in the data set on M-HeLa was at least 14.7 µM. The IC50 at 24 h in data set [1] is over 100 µM.
In the same order, the values of `CN(C)CCc1c(O)c2ccccc2oc1=O` are at least 14.7 µM and over 100 µM.
The corresponding values for `CCCCCCc1c(O)cc(C)oc1=O` are at least 14.7 µM and over 100 µM.
Consider `Oc1cc2c(cc1-c1ccc(Br)cc1)OCO2`, for which, in the data set with M-HeLa, the concentration for half-maximal inhibition (IC50) was determined as 14.7 µM. The IC50 at 24 h in data set [1] was over 100 µM.
`O=C1Nc2ccc(OC(F)(F)F)cc2[C@@]12N[C@H](Cc1c[nH]cn1)[C@@H]([N+](=O)[O-])[C@@H]2c1ccccc1`: the 50% inhibitory concentration (IC50) in the data set on FaDu is at least 30 µM.
On to `COc1ccc(-c2ccc(Nc3c([N+](=O)[O-])c(Cl)cc4c3no[n+]4[O-])cc2O)cc1`, for which the IC50 with M-HeLa is at least 14.7 µM. In addition, in data set [1], the IC50 at 24 h is over 100 µM.
The corresponding values for `Cc1cc(O)c(-c2ccc(Br)cc2)c(=O)o1` are at least 14.7 µM and over 100 µM.
`Cc1ccc([C@H]2[C@H]([N+](=O)[O-])[C@@H](Cc3c[nH]c4ccccc34)N[C@]23C(=O)Nc2ccc(OC(F)(F)F)cc23)cc1`: the IC50 in the data set with FaDu was at least 30 µM.
`Oc1cc2c(cc1-c1ccccc1)OCO2`: the IC50 in the data set on M-HeLa amounted to 14.7 µM. In addition, the IC50 at 24 h in data set [1] is over 100 µM.
For `O=[N+]([O-])c1c(Cl)cc2c(no[n+]2[O-])c1Nc1ccc(-c2ccccc2)c(O)c1`, in the data set with M-HeLa, the IC50 is at least 14.7 µM. Moreover, the IC50 at 24 h in data set [1] was over 100 µM.
Take `COc1ccc(-c2c(O)cc(C)oc2=O)cc1`: in the data set on M-HeLa, the 50% inhibitory concentration (IC50) was at least 14.7 µM. Besides, in data set [1], the IC50 at 24 h was over 100 µM.
In the same order, the values of `O=c1cc(O)c2ccccc2o1` [4-HYDROXYCOUMARINS] are at least 14.7 µM and over 100 µM.
As to `O=C1Nc2ccc(OC(F)(F)F)cc2[C@@]12N[C@H](Cc1c[nH]c3ccccc13)[C@@H]([N+](=O)[O-])[C@@H]2c1ccc(Br)cc1`, the IC50 in the data set with FaDu was at least 30 µM.
For the molecule `CN(C)CCc1cc2c(cc1O)OCO2`, the IC50 in the data set with M-HeLa came out at 14.7 µM. Further, in data set [1], the IC50 at 24 h was over 100 µM.
As for `O=C1Nc2ccc(OC(F)(F)F)cc2[C@@]12N[C@H](Cc1c[nH]cn1)[C@@H]([N+](=O)[O-])[C@@H]2c1ccccc1Cl`, in the data set on FaDu, the IC50 was at least 30 µM.
Take `Cc1cc(O)c(C2CCCCC2)c(=O)o1`: in the data set with M-HeLa, the IC50 is at least 14.7 µM. In data set [1], the IC50 at 24 h was over 100 µM.
For the molecule `O=C1Nc2ccccc2[C@@]12N[C@H](Cc1c[nH]cn1)[C@@H]([N+](=O)[O-])[C@@H]2c1ccccc1Cl`, in the data set with FaDu, the IC50 was at least 30 µM.
As to `O=C1Nc2ccc(OC(F)(F)F)cc2[C@@]12N[C@H](Cc1c[nH]c3ccccc13)[C@@H]([N+](=O)[O-])[C@@H]2c1ccccc1Cl`, the IC50 in the data set with FaDu is at least 30 µM.
`O=c1oc2ccccc2c(O)c1-c1ccccc1`: the IC50 in the data set with M-HeLa is at least 14.7 µM. Also, the IC50 at 24 h in data set [1] was over 100 µM.
As for `COc1ccc([C@H]2[C@H]([N+](=O)[O-])[C@@H](Cc3c[nH]c4ccccc34)N[C@]23C(=O)Nc2ccc(OC(F)(F)F)cc23)cc1`, in the data set on FaDu, the half-maximal inhibitory concentration (IC50) is at least 30 µM.
`COc1ccc([C@H]2[C@H]([N+](=O)[O-])[C@@H](Cc3c[nH]c4ccccc34)N[C@]23C(=O)Nc2ccccc23)cc1`: the IC50 with FaDu was at least 30 µM.
Take `O=C1Nc2ccccc2[C@@]12N[C@H](Cc1c[nH]cn1)[C@@H]([N+](=O)[O-])[C@@H]2c1ccccc1`: the IC50 with FaDu was determined as 43 µM.
As to `O=C1Nc2ccccc2[C@@]12N[C@H](Cc1c[nH]cn1)[C@@H]([N+](=O)[O-])[C@@H]2c1cccc([N+](=O)[O-])c1`, in the data set on FaDu, the IC50 was at least 30 µM.
Regarding `COc1ccc(-c2c(O)c3ccccc3oc2=O)cc1`, the IC50 in the data set with M-HeLa is at least 14.7 µM. In addition, in data set [1], the IC50 at 24 h was over 100 µM.
On to `O=[N+]([O-])c1c(Cl)cc2c(no[n+]2[O-])c1Nc1ccc(C2CCCCC2)c(O)c1`, for which the IC50 with M-HeLa is at least 14.7 µM. Further, the IC50 at 24 h in data set [1] is over 100 µM.
For the molecule `O=c1oc2ccccc2c(O)c1-c1ccc(F)cc1`, the half-maximal inhibitory concentration (IC50) in the data set with M-HeLa was at least 14.7 µM. Besides, in data set [1], the IC50 at 24 h is over 100 µM.
In the same order, the values of `O=[N+]([O-])c1c(Cl)cc2c(no[n+]2[O-])c1Nc1cccc(O)c1` are at least 14.7 µM and over 100 µM.
`CN(C)CCc1ccc(Nc2c([N+](=O)[O-])c(Cl)cc3c2no[n+]3[O-])cc1O`: in the data set on M-HeLa, the half-inhibitory concentration (IC50) was at least 14.7 µM. The IC50 at 24 h in data set [1] was over 100 µM.
For the molecule `O=[N+]([O-])c1c(Cl)cc2c(no[n+]2[O-])c1Nc1ccc(-c2ccc(Br)cc2)c(O)c1`, the IC50 with M-HeLa is at least 14.7 µM. Moreover, the IC50 at 24 h in data set [1] is over 100 µM.
The corresponding values for `Cc1cc(O)c(-c2ccccc2)c(=O)o1` are at least 14.7 µM and over 100 µM.
For `Cc1cc(O)c(CCN(C)C)c(=O)o1`, in the data set on M-HeLa, the concentration for half-maximal inhibition (IC50) is at least 14.7 µM. Further, the IC50 at 24 h in data set [1] is over 100 µM.
For the molecule `O=c1oc2ccccc2c(O)c1-c1ccc(Br)cc1`, the IC50 in the data set with M-HeLa is at least 14.7 µM. The IC50 at 24 h in data set [1] is over 100 µM.
The corresponding values for `O=[N+]([O-])c1c(Cl)cc2c(no[n+]2[O-])c1Nc1ccc(-c2ccc(F)cc2)c(O)c1` are at least 14.7 µM and over 100 µM.
As to `Cc1cc(O)c(-c2ccc(F)cc2)c(=O)o1`, the 50% inhibitory concentration (IC50) with M-HeLa was at least 14.7 µM. Moreover, in data set [1], the IC50 at 24 h is over 100 µM.

One may read the IC50 as the point on the concentration scale where inhibition reaches its midpoint.
